Source: patent publication US8802678B2, “Carbonylated (aza) cyclohexanes as dopamine D3 receptor ligands” (Bioprojet, priority 2006, dated 2014)

`N#CCC(=O)N[C@H]1CC[C@H](CCN2CCN(c3ccc(Cl)cc3Cl)CC2)CC1` [Example 709, 2-Cyano-N-(4-{2-[4-(2,4-dichlorophenyl)piperazin-1-yl]ethyl}cyclohexyl)acetamide] showed a melting point of 189 °C.

Work on `O=C(CC(F)(F)F)N[C@H]1CC[C@H](CCN2CCN(c3cccc(C(F)(F)F)c3F)CC2)CC1` [Example 256, 3,3,3-Trifluoro-N-(4-{2-[4-(2-fluoro-3-trifluoromethylphenyl)-piperazin-1-yl]ethyl}cyclohexyl)-propanamide] yielded a melting point of 198 °C.

`CCOC(=O)Nc1cccc(N2CCN(CC[C@H]3CC[C@H](NC(=O)CC#N)CC3)CC2)c1` [Example 217, [3-(4-{2-[4-(2-Cyanoacetylamino)cyclohexyl]ethyl}piperazin-1-yl)phenyl] carbamic acid ethyl ester] showed a melting point of 170 °C.

`CC(=O)CN1CCC(CCN2CCN(c3cc(C)cc(F)c3)CC2)CC1.Cl.Cl` gave a melting point of 273 °C.

Compound `Cc1cc(N2CCN(CC[C@H]3CC[C@H](NC(=O)CCCC#N)CC3)CC2)c(Cl)cc1F` [Example 390] has a melting point of 158 °C.

Compound `Cc1c(F)cccc1N1CCN(CC[C@H]2CC[C@H](NC(=O)CCCC#N)CC2)CC1` [Example 356, 4-Cyano-N-(4-{2-[4-(3-fluoro-2-methylphenyl)piperazin-1-yl]ethyl}cyclohexyl)butanamide] has a melting point of 159 °C.

With `CCOCC(=O)N[C@H]1CC[C@H](CCN2CCN(c3cccc(C(F)(F)F)c3)CC2)CC1.Cl` the melting point was 184 °C.

Work on `Cc1ccc(N2CCN(CC[C@H]3CC[C@H](NC(=O)CCCC#N)CC3)CC2)cc1` [Example 467, 4-Cyano-N-{4-[2-(4-p-tolylpiperazin-1-yl)ethyl]cyclohexyl}butanamide] yielded a melting point of 189 °C.

With `COCCCC(=O)N[C@H]1CC[C@H](CCN2CCN(c3ccc(Cl)c(Cl)c3)CC2)CC1` [Example 502, N-(4-{2-[4-(3,4-Dichlorophenyl)piperazin-1-yl]ethyl}cyclohexyl)-4-methoxybutanamide] the melting point was 175 °C.

For `CCc1cccc(N2CCN(CC[C@H]3CC[C@H](NC(=O)CCC#N)CC3)CC2)c1` [Example 251, 3-Cyano-N-(4-{2-[4-(3-ethylphenyl)piperazin-1-yl]ethyl}cyclohexyl)propanamide], the melting point was 143 °C.

`COc1ccc(C)c(N2CCN(CCC3CCN(CC(C)=O)CC3)CC2)c1.Cl.Cl` showed a melting point of 283 °C.

With `CCOCC(=O)N[C@H]1CC[C@H](CCN2CCN(c3ccccc3OC)CC2)CC1` [Example 123, 2-Ethoxy-N-(4-{2-[4-(2-methoxyphenyl)piperazin-1-yl]ethyl}cyclohexyl)acetamide] the melting point was 210 to 214 °C.

Compound `N#CCCCC(=O)N[C@H]1CC[C@H](CCN2CCN(c3cccc4c3CCCC4)CC2)CC1` [Example 209, 4-Cyano-N-(4-{2-[4-(5,6,7,8-tetrahydronaphthalen-1-yl)piperazin-1-yl]ethyl}cyclohexyl)butanamide] has a melting point of 148 °C.

For `CC(C)OCC(=O)N[C@H]1CC[C@H](CCN2CCN(c3ccccc3F)CC2)CC1` [Example 97, N-(4-{2-[4-(2-Fluorophenyl)-piperazin-1-yl]ethyl}cyclohexyl)-2-isopropoxyacetamide], the melting point was 96 °C.

With `CCc1cccc(N2CCN(CC[C@H]3CC[C@H](NC(=O)C4CC=CC4)CC3)CC2)c1` [Example 378, Cyclopent-3-enecarboxylic acid (4-{2-[4-(3-ethylphenyl)piperazin-1-yl]ethyl}cyclohexyl) amide] the melting point was 185 °C.

`NC(=O)CCC(=O)N[C@H]1CC[C@H](CCN2CCN(c3cccc(F)c3)CC2)CC1` [Example 397, N-(4-{2-[4-(3-Fluorophenyl)-piperazin-1-yl]ethyl}cyclohexyl)-succinamide] showed a melting point of 255 °C.

For `N#CCC(=O)N[C@H]1CC[C@H](CCN2CCN(c3ccc(F)c(C#N)c3F)CC2)CC1` [Example 687, 2-Cyano-N-(4-{2-[4-(3-cyano-2,4-difluorophenyl)piperazin-1-yl]ethyl}cyclohexyl)acetamide], the melting point was 210 °C.

Work on `O=C(CC(F)(F)F)N[C@H]1CC[C@H](CCN2CCN(c3cccc4ncccc34)CC2)CC1` [Example 320, 3,3,3-Trifluoro-N-{4-[2-(4-quinolin-5-ylpiperazin-1-yl)ethyl]cyclohexyl}propanami-de] yielded a melting point of 207 °C.

Work on `Cc1ccc(F)cc1N1CCN(CC[C@H]2CC[C@H](NC(=O)CC#N)CC2)CC1` [Example 196, 2-Cyano-N-(4-{2-[4-(5-fluoro-2-methylphenyl)piperazin-1-yl]ethyl}cyclohexyl)acetamide] yielded a melting point of 159 °C.

For `CC(=O)CN1CCC(CCN2CCN(c3cccc(C(C)(F)F)c3)CC2)CC1.Cl.Cl`, the melting point was 256 °C.

For `N#CCCCC(=O)N[C@H]1CC[C@H](CCN2CCN(c3cccc4ncccc34)CC2)CC1` [Example 321, 4-Cyano-N-{4-[2-(4-quinolin-5-ylpiperazin-1-yl)ethyl]cyclohexyl}butanamide], the melting point was 155 °C.

`CC(=O)CN1CCC(CCN2CCN(c3cccc(S(C)(=O)=O)c3)CC2)CC1.Cl.Cl` gave a melting point of 260 °C.

In the case of `CC(=O)CN1CCC(CCN2CCN(c3cc(C)cc(C)c3)CC2)CC1.Cl.Cl`, the melting point is reported as 275 °C.

Work on `CC(C)(C)OC(=O)CN1CCC(CCN2CCN(c3cccc(C(F)(F)F)c3)CC2)CC1.Cl.Cl` yielded a melting point of 245 °C.

`Cc1ccc(Cl)cc1N1CCN(CC[C@H]2CC[C@H](NC(=O)CCC(N)=O)CC2)CC1` [Example 190, N-(4-{2-[4-(5-Chloro-2-methylphenyl)piperazin-1-yl]ethyl}cyclohexyl)succinamide] showed a melting point of 237 to 240 °C.

For `CC(=O)CN1CCC(CCN2CCN(c3ccc(F)cc3)CC2)CC1.Cl.Cl`, the melting point was 270 °C.

Compound `N#CCC(=O)N[C@H]1CC[C@H](CCN2CCN(c3ccc(F)c(Cl)c3)CC2)CC1` [Example 594, N-(4-{2-[4-(3-Chloro-4-fluorophenyl)piperazin-1-yl]ethyl}cyclohexyl)-2-cyanoacetamide] has a melting point of 176 °C.

`CCOCC(=O)N[C@H]1CC[C@H](CCN2CCN(c3ccc(C)c(F)c3)CC2)CC1` [Example 539, 2-Ethoxy-N-(4-{2-[4-(3-fluoro-4-methylphenyl)piperazin-1-yl]ethyl}cyclohexyl)acetamide] showed a melting point of 124 °C.

Compound `CC(=O)CN1CCC(CCN2CCN(c3cc(Cl)ccc3C)CC2)CC1.Cl.Cl` has a melting point of 259 °C.

Work on `N#CCC(=O)N[C@H]1CC[C@H](CCN2CCN(c3cc(Cl)cc(Cl)c3)CC2)CC1` [Example 151, 2-Cyano-N-(4-{2-[4-(3,5-dichlorophenyl)piperazin-1-yl]ethyl}cyclohexyl)acetamide] yielded a melting point of 200 °C.

`COCC(=O)N[C@H]1CC[C@H](CCN2CCN(c3cc(C#N)cc(C(F)(F)F)c3)CC2)CC1` [Example 139, N-(4-{2-[4-(3-Cyano-5-trifluoromethylphenyl)piperazin-1-yl]ethyl}cyclohexyl)-2-methoxyacetamide] showed a melting point of 140 °C.

`N#CCC(=O)N[C@H]1CC[C@H](CCN2CCN(c3cc(F)cc(Cl)c3)CC2)CC1` [Example 181, N-(4-{2-[4-(3-Chloro-5-fluorophenyl)piperazin-1-yl]ethyl}cyclohexyl)-2-cyanoacetamide] gave a melting point of 181 to 183 °C.

Compound `COc1ccc(OC)c(N2CCN(CCC3CCN(CC(C)=O)CC3)CC2)c1.Cl.Cl` has a melting point of 268 °C.

`N#CCC(=O)N[C@H]1CC[C@H](CCN2CCN(c3ccc(C(F)(F)F)cc3F)CC2)CC1` [Example 645, 2-Cyano-N-(4-{2-[4-(2-fluoro-4-trifluoromethylphenyl)piperazin-1-yl]ethyl}cyclohexyl) acetamide] gave a melting point of 212 °C.

Work on `Cc1ccccc1N1CCN(CC[C@H]2CC[C@H](NC(=O)CC#N)CC2)CC1` [Example 220, 2-Cyano-N-{4-[2-(4-o-tolylpiperazin-1-yl)ethyl]cyclohexyl}acetamide] yielded a melting point of 150 °C.

For `O=C(COc1ccccc1)N[C@H]1CC[C@H](CCN2CCN(c3cccc(F)c3)CC2)CC1` [Example 396, N-(4-{2-[4-(3-Fluorophenyl)piperazin-1-yl]ethyl}cyclohexyl)-2-phenoxyacetamide], the melting point was 150 °C.

Compound `O=C(N[C@H]1CC[C@H](CCN2CCN(c3ccc(Cl)cc3F)CC2)CC1)C1=CCCC1` [Example 517, Cyclopent-1-enecarboxylic acid (4-{2-[4-(4-chloro-2-fluorophenyl)piperazin-1-yl]ethyl}cyclohexyl) amide] has a melting point of 216 °C.

`N#CCC(=O)N[C@H]1CC[C@@H](CCN2CCN(c3ccc(C(F)(F)F)cc3)CC2)CC1` [Example 613, 2-Cyano-N-(4-{2-[4-(4-trifluoromethylphenyl)piperazin-1-yl]ethyl}cyclohexyl)acetamide] gave a melting point of 156 °C.

Compound `Cc1c(Cl)cccc1N1CCN(CC[C@H]2CC[C@H](NC(=O)CC#N)CC2)CC1` [Example 136, N-(4-{2-[4-(3-Chloro-2-methylphenyl)piperazin-1-yl]ethyl}cyclohexyl)-2-cyanoacetamide] has a melting point of 179 to 182 °C.

For `N#CCCCC(=O)N[C@H]1CC[C@H](CCN2CCN(c3cccc(-c4ncco4)c3)CC2)CC1` [Example 526, 4-Cyano-N-(4-{2-[4-(3-oxazol-2-ylphenyl)piperazin-1-yl]ethyl}cyclohexyl)butanamide], the melting point was 192 °C.

In the case of `COCCC(=O)N[C@H]1CC[C@H](CCN2CCN(c3cccc(C(F)(F)F)c3)CC2)CC1` [Example 47, 3-Methoxy-N-(4-{2-[4-(3-trifluoromethylphenyl)piperazin-1-yl]ethyl}cyclohexyl)propanamide], the melting point is reported as 125 °C.

For `N#CCC(=O)N[C@H]1CC[C@H](CCN2CCN(c3ccc(C(F)(F)F)cc3)CC2)CC1` [Example 274, 2-Cyano-N-(4-{2-[4-(4-trifluoromethylphenyl)piperazin-1-yl]ethyl}cyclohexyl)acetamide], the melting point was 240 °C.

`N#CCC(=O)N[C@H]1CC[C@H](CCN2CC=C(c3cccc(C(F)(F)F)c3F)CC2)CC1` gave a melting point of 171 °C.

`N#CCC(=O)N[C@H]1CC[C@H](CCN2CCN(c3cccc4ccccc34)CC2)CC1` [Example 183, 2-Cyano-N-{4-[2-(4-naphthalen-1-ylpiperazin-1-yl)ethyl]cyclohexyl}acetamide] showed a melting point of 174 °C.

Work on `CNC(=O)CC1CCC(CCN2CCN(c3cccc(C(F)(F)F)c3)CC2)CC1` (mixture of isomers) [Example 295, N-Methyl-2-(4-{2-[4-(3-trifluoromethylphenyl)piperazin-1-yl]ethyl}cyclohexyl)acetamide cis/trans 50/50] yielded a melting point of 196 °C.
